Assay results taken from patent US20230218589A1, “COMPOUND FOR PREVENTION OR TREATMENT OF A SKIN CANCER OR SKIN PRECANCER” (UNIQUEST PTY LTD, priority 2020, published 2023).

Key:
actinic keratoses (AKs) = settings: topical therapy, organ transplant recipients (Heppt et al. 2019); cited from earlier work
human T cells = test: Human T cell proliferation assay (PBMCs, anti-CD3, CellTiter-Glo); type: cell-based; settings: 50 ng/mL cyclosporine A, anti-CD3, 5 days
Experimental: Cyclosporine A 1 mg/mL stock (CsA—Sigma) was dissolved in DMSO, Rapamycin 5 mg/mL stock (LC Labs) was dissolved in ethanol.
Under sterile conditions, a 96 well flat bottom plate with white opaque walls (Perkin Elmer) was coated with 10 μg per well of purified human anti-CD3 antibody (clone OKT-3; Biolegend) in a volume of 50 μL per well in sterile PBS. The plate was covered in parafilm and incubated overnight at 4° C. Just prior to addition of Peripheral Blood Mononuclear Cells (PBMCs), the antibody solution was removed and discarded using a multichannel pipette. Wells were washed by adding 200 μL sterile PBS to each well and incubating for 2 min. PBS wash solution was removed and discarded following incubation. The wash step was repeated once, for a total of two PBS washes.
20 mL of blood from a consenting healthy volunteer was collected into lithium heparin vacuette containers (Greiner Bio-One). Under sterile conditions, blood from each container was pooled into a single tube and mixed thoroughly with 20 mL FACS buffer (2% FBS in 1×PBS). 15 mL Ficoll-Paque (GE Healthcare) was added to two 50 mL Falcon tubes, before 20 mL of whole blood/FACS buffer mixture was carefully and slowly dispensed on top of the Ficoll layer. Tubes were centrifuged at 800 g for 20 min at room temperature with the brake off. After centrifugation, the resulting PBMC layer between the plasma and Ficoll layers was carefully removed and transferred to a new 50 mL Falcon tube. Tubes were topped up to 45 mL with FACS buffer, then centrifuged at 500 g for 15 min. Supernatant was carefully removed without disturbing cell pellet, then PBMCs from both tubes were pooled. 30 mL of pre-warmed complete RPMI media [RPMI 1640 (Gibco), 10% heat inactivated FBS (Gibco), 1× Penicillin/Streptomycin/L-Glutamine (Gibco), 100 μM 2-Mercaptoethanol (Sigma)] was added to PBMCs, before centrifugation at 500 g for 15 min at room temperature. Supernatant was removed carefully without disturbing cell pellet. PBMCs were resuspended in 1 mL complete RPMI media.
PBMCs were counted manually using a haemocytometer and cell concentration was adjusted to 1.5×10^6 cells/mL with complete RPMI media. 50 μL of cell suspension was added to appropriate wells of the 96 well flat bottom plate with white opaque walls pre-coated in human anti-CD3. The final number of cells per well was 7.5×10^4.
Cells were incubated in a humidified incubator at 37° C. with 5% CO2 for 1 hour before Compound 1 (or vehicle only) was diluted in complete RPMI medium and added to the appropriate wells at the concentration required. The final volume in all wells was 100 μL. Cells were incubated for 5 days in a humidified incubator at 37° C. with 5% CO2.
CellTiter-Glo Luminescent Cell Viability Assay (Promega) was performed to determine the level of metabolically active cells per well based on ATP quantification. CellTiter-Glo Buffer and lyophilised CellTiter-Glo Substrate were equilibrated to room temperature. CellTiter-Glo Substrate was reconstituted with 10 mL CellTiter-Glo Buffer and gently vortexed for 1 minute to create the CellTiter-Glo Reagent. The 96 well plate containing PBMCs was equilibrated to room temperature for 30 min. Once at room temperature, 100 μL of CellTiter-Glo Reagent was dispensed using a multichannel pipette into each well containing 100 μL cells and media. The plate was mixed for 2 min at room temperature on an orbital shaker to induce cell lysis. The plate was then incubated for 10 min at room temperature in the dark to stabilize the luminescence signal. Luminescence signal was recorded using a CLARIOstar Plus plate reader (BMG Labtech).
PBMCs were stimulated with human anti-CD3 antibody and T cells were allowed to proliferate at 37° C. with 5% CO2 in a humidified incubator for 5 days. Proliferation/viability was assessed via a CellTiter-Glo Luminescent Cell Viability Assay and luminescence was read using a CLARIOstar Plus plate reader. […]

O=c1[nH]cc(F)c(=O)[nH]1 [5-fluorouracil]
complete clearance rate of AKs (actinic keratoses (AKs)): 11%

CC(C)Cn1cnc2c(N)nc3ccccc3c21 [imiquimod]
complete clearance rate of AKs (actinic keratoses (AKs)): 27.5-62.1%

cyclosporine A [reference compound]
T cell proliferation compared to the vehicle control (human T cells): inhibited
